This note sets out measurements from publication PMC6736568, “Discovery of Novel Anti-cryptosporidial Activities From Natural Products by in vitro High-Throughput Phenotypic Screening” (Frontiers in Microbiology, 2019).

One series has as its system Cryptosporidium parvum. Kind of series: qRT-PCR assay of the growth of C. parvum in vitro in HCT-8 host cells (primary and secondary screening, EC50). The format is cell-based. The conditions noted are these: Cryptosporidium parvum, HCT-8; for inhibition at 10 µM: primary screening at 10 uM, read-out: Inhibition (%); for inhibition at 3.3 µM: secondary screening at 3.3 uM, read-out: % Inhibition (3.3 uM). (In general: In qPCR the cycle at which signal appears reflects the starting amount.)

The nature of the next series: in vitro. The conditions noted are these: for cytotoxicity at 41 h, 10 µM: human.
Where [1] appears, read: primary screening at 10 uM, treated vs control.

Structures can show the parent of a compound that is named as a salt. Where two headings read alike, the source gives them in different places.

`C=C1C[C@]23C[C@@]1(O)CC[C@H]2[C@@]12C=C[C@H](O)[C@@](C)(C(=O)O1)[C@H]2[C@@H]3C(=O)O` [GIBBERELLIC ACID]: the inhibition at 10 µM with Cryptosporidium parvum was determined as 32.7%. The “Hs18S ΔCT” value in the series with HCT-8 host cells (Hs18S) (setting [1]) stood at 0.09. In addition, the cytotoxicity at 10 µM in the series “in vitro” amounted to 5.9%.

Turning to `C[C@@H]1C(=O)O[C@H]2C[C@@]34[C@H]5C[C@@H](C(C)(C)C)[C@]36[C@@H](OC(=O)[C@@H]6O)O[C@@]4(C(=O)O5)[C@]21O` [GINKGOLIDE A], the inhibition at 10 µM in the series with Cryptosporidium parvum came to 37.5%. The “Hs18S ΔCT” value in the series with HCT-8 host cells (Hs18S) (setting [1]) is 0.10. Also, the cytotoxicity at 10 µM in “in vitro” amounted to 6.6%.

For the compound `C[C@H]1O[C@@H](O[C@H]2[C@@H](O)C[C@H](O[C@H]3[C@@H](O)C[C@H](O[C@H]4CC[C@@]5(C)[C@H](CC[C@@H]6[C@@H]5CC[C@]5(C)[C@@H](C7=CC(=O)OC7)[C@@H](O)C[C@]65O)C4)O[C@@H]3C)O[C@@H]2C)C[C@H](O)[C@@H]1O` [GITOXIN], the inhibition at 10 µM with Cryptosporidium parvum is 35.4%. Further, the “Hs18S ΔCT” value in the series with HCT-8 host cells (Hs18S) (setting [1]) was 0.08. In the series “in vitro”, the cytotoxicity at 10 µM is 5.4%.

For the compound `OC[C@@H](O)[C@@H](O[C@@H]1O[C@H](CO)[C@@H](O)[C@H](O)[C@H]1O)[C@H](O)[C@@H](O)CO` [GLUCITOL-4-GUCOPYANOSIDE], the inhibition at 10 µM with Cryptosporidium parvum is 4.89%. Besides, the “Hs18S ΔCT” value with HCT-8 host cells (Hs18S) (human, 41 h, 10 μM) is given as -0.19. The cytotoxicity at 41 h, 10 µM in “in vitro” is -14.4%.

Consider `N[C@@H](C(=O)O)[C@@H](O)[C@H](O)[C@H](O)CO` [GLUCOSAMINIC ACID], for which, in the series on Cryptosporidium parvum, the inhibition at 10 µM is -5.48%. Also, in the series with HCT-8 host cells (Hs18S) (human, 41 h, 10 μM), the “Hs18S ΔCT” value stood at 0.22. Moreover, the cytotoxicity at 41 h, 10 µM in “in vitro” was found to be 13.9%.

Consider `N[C@@H](CCC(=O)N[C@@H](CS)C(=O)NCC(=O)O)C(=O)O` [GLUTATHIONE], for which, in the series on Cryptosporidium parvum, the inhibition at 10 µM was 68.1% and the inhibition at 3.3 µM was -20%. In addition, in the series on HCT-8 host cells (Hs18S) (human, 41 h, 10 μM), the “Hs18S ΔCT” value is given as -0.40. For the same compound, the cytotoxicity at 41 h, 10 µM in the series “in vitro” was -32%.

On to `C[C@H](CCC(=O)NCC(=O)O)[C@H]1CC[C@H]2[C@@H]3[C@H](O)C[C@@H]4C[C@H](O)CC[C@]4(C)[C@H]3C[C@H](O)[C@]12C` [GLYCOCHOLIC ACID], for which, in the series on Cryptosporidium parvum, the inhibition at 10 µM is -58.4%. In addition, the “Hs18S ΔCT” value in the series on HCT-8 host cells (Hs18S) (human, 41 h, 10 μM) was -0.31. For the same compound, the cytotoxicity at 10 µM in “in vitro” is -23.7%.

As to `O=c1c(O)c(-c2ccc(O)c(O)c2)oc2c(O)c(O)cc(O)c12` [GOSSYPETIN], the inhibition at 10 µM in the series on Cryptosporidium parvum is -17.5%. Besides, the “Hs18S ΔCT” value in the series on HCT-8 host cells (Hs18S) (setting [1]) is listed as -0.04. In the series “in vitro”, the cytotoxicity at 10 µM is -2.6%.

On to `Cc1cc2c(C(C)C)c(O)c(O)c(C=O)c2c(O)c1-c1c(C)cc2c(C(C)C)c(O)c(O)c(C=O)c2c1O` [GOSSYPOL], for which the inhibition at 10 µM in the series with Cryptosporidium parvum is 21.4%. In the series on HCT-8 host cells (Hs18S) (setting [1]), the “Hs18S ΔCT” value is on record as 0.45. Further, in the series “in vitro”, the cytotoxicity at 41 h, 10 µM came out at 26.6%.

Take `CN(C)Cc1c[nH]c2ccccc12` [GRAMINE]: the inhibition at 10 µM with Cryptosporidium parvum was -43.9%. The “Hs18S ΔCT” value in the series on HCT-8 host cells (Hs18S) (setting [1]) was -0.42. The cytotoxicity at 41 h, 10 µM in the series “in vitro” is -33.5%.

With `COC1=CC(=O)C[C@@H](C)[C@]12Oc1c(Cl)c(OC)cc(OC)c1C2=O` [GRISEOFULVIN], in the series with Cryptosporidium parvum, the inhibition at 10 µM worked out at 66% and the inhibition at 3.3 µM is 9%. Further, in the series on HCT-8 host cells (Hs18S) (human, 41 h, 10 μM), the “Hs18S ΔCT” value came out at 0.30. Moreover, in the series “in vitro”, the cytotoxicity at 41 h, 10 µM is 18.7%.

In the case of `CC(=O)O[C@@H]1[C@H]2CC[C@H]3[C@@](C)(O)[C@@H]4C[C@H](O)C(C)(C)[C@@]4(O)[C@H](O)C[C@@]13C[C@@]2(C)O` [GR[…]], the inhibition at 10 µM in the series with Cryptosporidium parvum was 3.95%. Moreover, the “Hs18S ΔCT” value in the series on HCT-8 host cells (Hs18S) (setting [1]) is -0.03. The cytotoxicity at 10 µM in the series “in vitro” is -2.4%.

On to `COc1ccccc1O` [GUAIACOL], for which the inhibition at 10 µM in the series with Cryptosporidium parvum was -32.9%. The “Hs18S ΔCT” value in the series with HCT-8 host cells (Hs18S) (human, 41 h, 10 μM) is listed as 0.02. The cytotoxicity at 41 h, 10 µM in “in vitro” came out at 1.6%.

For the compound `Cc1ccc(C(C)C)cc2c(C)ccc1-2` [GUAIAZULENE], the inhibition at 10 µM in the series on Cryptosporidium parvum was -38.2%. In addition, the “Hs18S ΔCT” value with HCT-8 host cells (Hs18S) (human, 41 h, 10 μM) was -0.34. The cytotoxicity at 41 h, 10 µM in the series “in vitro” was -27%.

Turning to `CC1=C(CCC(=O)O)c2cc3[nH]c(cc4nc(cc5[nH]c(cc1n2)c(C)c5C(C)O)C(C)=C4C(C)O)c(C)c3CCC(=O)O` (stereo not shown) [HAEMATOPORPHYRIN], in the series with Cryptosporidium parvum, the inhibition at 10 µM turned out to be 93.1% and the inhibition at 3.3 µM came to 33%. The “Hs18S ΔCT” value with HCT-8 host cells (Hs18S) (human, 41 h, 10 μM) stood at 1.45. For the same compound, the cytotoxicity at 41 h, 10 µM in the series “in vitro” amounted to 63.3%.

As to `Oc1cc2c(cc1O)C1c3ccc(O)c(O)c3OCC1(O)C2` (stereo not shown) [HAEMATOXYLIN], the inhibition at 10 µM in the series with Cryptosporidium parvum is -27.2%. Further, the “Hs18S ΔCT” value in the series on HCT-8 host cells (Hs18S) (human, 41 h, 10 μM) was found to be 0.00. Also, the cytotoxicity at 41 h, 10 µM in “in vitro” came to 0.1%.

Regarding `COc1ccc2c3c([nH]c2c1)C(C)=NCC3` [HARMALINE], the inhibition at 10 µM in the series on Cryptosporidium parvum was -31.9%. Besides, the “Hs18S ΔCT” value in the series on HCT-8 host cells (Hs18S) (setting [1]) turned out to be 0.01. Also, the cytotoxicity at 10 µM in “in vitro” was determined as 0.9%.

In the case of `Cc1nccc2c1[nH]c1ccccc12` [HARMANE], the inhibition at 10 µM with Cryptosporidium parvum was -23.2%. Also, in the series on HCT-8 host cells (Hs18S) (setting [1]), the “Hs18S ΔCT” value came out at 0.07. Also, the cytotoxicity at 10 µM in the series “in vitro” came out at 4.5%.

In the case of `COc1ccc2c(c1)[nH]c1c(C)nccc12` [HARMINE], in the series with Cryptosporidium parvum, the inhibition at 10 µM turned out to be 82.2% and the inhibition at 3.3 µM is -62%. Further, in the series on HCT-8 host cells (Hs18S) (setting [1]), the “Hs18S ΔCT” value is given as 0.49. Besides, the cytotoxicity at 10 µM in the series “in vitro” stood at 28.6%.

Consider `Cc1nccc2c1[nH]c1cc(O)ccc12` [HARMOL HYDROCHLORIDE], for which the inhibition at 10 µM with Cryptosporidium parvum was -55.1%. Moreover, the “Hs18S ΔCT” value in the series with HCT-8 host cells (Hs18S) (setting [1]) is reported as -0.14. Also, the cytotoxicity at 10 µM in the series “in vitro” was -10.1%.

What is called inhibition is the relative decrease from the control value, in per cent.
